Test results: US8871796B2, “Diaryl ether derivatives as notch sparing gamma secretase inhibitors” (Merck Sharp & Dohme Corp., priority 2009, dated 2014)
Where two headings read alike, the source gives them in different places. Values belong to the compound of their own block, whether it stands above or below them.

Test: APP processing: AlphaLisa assay of secreted Aβ40 and Aβ42 from SP4CT cells
Assay type: cell-based
Settings: Homo sapiens, SH-SY5Y cells expressing amyloid β protein (SP4CT cells)
How it was run: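 Secreted Aβ40 and Aβ42 were quantified separately by AlphaLisa luminescence, pairing streptavidin donor beads bearing biotinylated 4G8 with G210 or 12F4 acceptor beads. Samples were conditioned media from compound-treated SH-SY5Y cells expressing amyloid β protein (SP4CT).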

[1] = read-out: IC50, inhibition of production of Aβ40 peptide
[2] = read-out: IC50, inhibition of production of Aβ42 peptide

- IC50 [1]: < 200 nM
- IC50 [2]: < 200 nM
Structure (SMILES): CCn1nc(-c2cccc(C(C)(C)NS(=O)(=O)CC(F)(F)F)c2)cc1Oc1ccc(CNc2ccccc2)cc1 [Example 84, N-[1-(3-{5-[4-(anilinomethyl)phenoxy]-1-ethyl-1H-pyrazol-3-yl}phenyl)-1-methylethyl]-2,2,2-trifluoroethanesulfonamide]

- IC50 [1]: < 200 nM
- IC50 [2]: < 200 nM
Structure (SMILES): CCn1nc(-c2cccc(C(C)(C)NS(=O)(=O)CC(F)(F)F)c2)cc1Oc1ccc(CNc2cccnc2)cc1 [Example 85, N-{1-[3-(1-ethyl-5-{4-[(pyridin-3-ylamino)methyl]phenoxy}-1H-pyrazol-3-yl)phenyl]-1-methylethyl}-2,2,2-trifluoroethanesulfonamide]

- IC50 [1]: < 200 nM
- IC50 [2]: < 200 nM
Structure (SMILES): CCn1nc(-c2cccc(C(C)(C)NS(=O)(=O)CC(F)(F)F)c2)cc1Oc1ccc(CN2CCC3(CC2)OCCO3)cc1 [Example 87, N-[1-(3-{5-[4-(1,4-dioxa-8-azaspiro[4.5]dec-8-ylmethyl)phenoxy]-1-ethyl-1H-pyrazol-3-yl}phenyl)-1-methylethyl]-2,2,2-trifluoroethanesulfonamide]

- IC50 [1]: < 200 nM
- IC50 [2]: < 200 nM
Structure (SMILES): CCn1nc(-c2cccc(C(C)(C)NS(=O)(=O)CC(F)(F)F)c2)cc1Oc1ccc(CN2CCN(C(C)=O)CC2)cc1 [Example 93, N-{1-[3-(5-{4-[(4-acetylpiperazin-1-yl)methyl]phenoxy}-1-ethyl-1H-pyrazol-3-yl)phenyl]-1-methylethyl}-2,2,2-trifluoroethanesulfonamide]

- IC50 [1]: < 200 nM
- IC50 [2]: < 200 nM
Structure (SMILES): CCn1nc(-c2cccc(C3(NS(=O)(=O)NC4CCC(F)(F)C4)COC3)c2)cc1Oc1ccc(C(F)(F)F)cc1 (centres unmarked) [Example 99]

- IC50 [1]: < 200 nM
- IC50 [2]: < 200 nM
Structure (SMILES): CCn1nc(Oc2ccc(C(F)(F)F)cc2)cc1-c1cccc(C2(NS(=O)(=O)NCC(F)(F)F)COC2)c1 [Example 101, N-[3-(3-{1-ethyl-3-[4-(trifluoromethyl)phenoxy]-1H-pyrazol-5-yl}phenyl)oxetan-3-yl]-N′-(2,2,2-trifluoroethyl)sulfamide]

- IC50 [1]: < 200 nM
- IC50 [2]: < 200 nM
Structure (SMILES): CC(C)(NS(=O)(=O)CC(F)(F)F)c1cccc(-c2cc(Oc3ccc(C(F)(F)F)cc3)n(CCO)n2)c1 [Example 105, 2,2,2-trifluoro-N-[1-(3-{1-(2-hydroxyethyl)-5-[4-(trifluoromethyl)phenoxy]-1H-pyrazol-3-yl}phenyl)-1-methylethyl]ethanesulfonamide]

- IC50 [1]: < 200 nM
- IC50 [2]: < 200 nM
Structure (SMILES): O=S(=O)(CC(F)(F)F)NC1(c2cccc(-c3cc(Oc4ccc(C(F)(F)F)cc4)n(CC(F)(F)F)n3)c2)CC1 [Example 107, 2,2,2-trifluoro-N-[1-(3-{1-(2,2,2-trifluoroethyl)-5-[4-(trifluoromethyl)phenoxy]-1H-pyrazol-3-yl}phenyl)cyclopropyl]ethanesulfonamide]

The next lines start with the compound.

Structure (SMILES): CCn1nc(-c2cccc(C(C)(C)NS(=O)(=O)CC(F)(F)F)c2)cc1Oc1ccc(CN2CC=C(C(F)(F)F)CC2)cc1 [Example 80, N-(1-{3-[1-ethyl-5-(4-{[4-(trifluoromethyl)-3,6-dihydropyridin-1(2H)-yl]methyl}phenoxy)-1H-pyrazol-3-yl]phenyl}-1-methylethyl)-2,2,2-trifluoroethanesulfonamide]
- IC50 [1]: < 200 nM
- IC50 [2]: < 200 nM

Structure (SMILES): CCn1nc(-c2cccc(C(C)(C)NS(=O)(=O)CC(F)(F)F)c2)cc1Oc1ccc(CNCC(=O)OC)cc1 [Example 81, methyl N-[4-({1-ethyl-3-[3-(1-methyl-1-{[(2,2,2-trifluoroethyl)sulfonyl]amino}ethyl)phenyl]-1H-pyrazol-5-yl}oxy)benzyl]glycinate]
- IC50 [1]: < 200 nM
- IC50 [2]: < 200 nM

Structure (SMILES): CCn1nc(-c2cccc(C(C)(C)NS(=O)(=O)CC(F)(F)F)c2)cc1Oc1ccc(CNc2ccc(OC)cc2)cc1 [Example 82]
- IC50 [1]: < 200 nM
- IC50 [2]: < 200 nM

Structure (SMILES): CCn1nc(-c2cccc(C(C)(C)NS(=O)(=O)CC(F)(F)F)c2)cc1Oc1ccc(CNc2ccon2)cc1 [Example 83, N-{1-[3-(1-ethyl-5-{4-[(isoxazol-3-ylamino)methyl]phenoxy}-1H-pyrazol-3-yl)phenyl]-1-methylethyl}-2,2,2-trifluoroethanesulfonamide]
- IC50 [1]: < 200 nM
- IC50 [2]: < 200 nM

Structure (SMILES): CCn1nc(-c2cccc(C(C)(C)NS(=O)(=O)CC(F)(F)F)c2)cc1Oc1ccc(CNc2nccs2)cc1 [Example 86, N-{1-[3-(1-ethyl-5-{4-[(1,3-thiazol-2-ylamino)methyl]phenoxy}-1H-pyrazol-3-yl)phenyl]-1-methylethyl}-2,2,2-trifluoroethanesulfonamide]
- IC50 [1]: < 200 nM
- IC50 [2]: < 200 nM

Structure (SMILES): CCn1nc(-c2cccc(C(C)(C)NS(=O)(=O)CC(F)(F)F)c2)cc1Oc1ccc(CNCc2cccs2)cc1 [Example 88, N-(1-{3-[1-ethyl-5-(4-{[(2-thienylmethyl)amino]methyl}phenoxy)-1H-pyrazol-3-yl]phenyl}-1-methylethyl)-2,2,2-trifluoroethanesulfonamide]
- IC50 [1]: < 200 nM
- IC50 [2]: < 200 nM

Structure (SMILES): CCn1nc(-c2cccc(C(C)(C)NS(=O)(=O)CC(F)(F)F)c2)cc1Oc1ccc(CNCc2ccncc2)cc1 [Example 89, N-(1-{3-[1-ethyl-5-(4-{[(pyridin-4-ylmethyl)amino]methyl}phenoxy)-1H-pyrazol-3-yl]phenyl}-1-methylethyl)-2,2,2-trifluoroethanesulfonamide]
- IC50 [1]: < 200 nM
- IC50 [2]: < 200 nM

Structure (SMILES): CCn1nc(-c2cccc(C(C)(C)NS(=O)(=O)CC(F)(F)F)c2)cc1Oc1ccc(CNCC2(C)CCCO2)cc1 (centres unmarked) [Example 90, N-[1-(3-{1-ethyl-5-[4-({[(2-methyltetrahydrofuran-2-yl)methyl]amino}methyl)phenoxy]-1H-pyrazol-3-yl}phenyl)-1-methylethyl]-2,2,2-trifluoroethanesulfonamide]
- IC50 [1]: < 200 nM
- IC50 [2]: < 200 nM

Structure (SMILES): CCn1nc(-c2cccc(C(C)(C)NS(=O)(=O)CC(F)(F)F)c2)cc1Oc1ccc(CNCC2CCOCC2)cc1 [Example 91, N-(1-{3-[1-ethyl-5-(4-{[(tetrahydro-2H-pyran-4-ylmethyl)amino]methyl}phenoxy)-1H-pyrazol-3-yl]phenyl}-1-methylethyl)-2,2,2-trifluoroethanesulfonamide]
- IC50 [1]: < 200 nM
- IC50 [2]: < 200 nM

Structure (SMILES): CCn1nc(-c2cccc(C(C)(C)NS(=O)(=O)CC(F)(F)F)c2)cc1Oc1ccc(CNC2CCCOC2)cc1 (centres unmarked) [Example 92, N-{1-[3-(1-ethyl-5-{4-[(tetrahydro-2H-pyran-3-ylamino)methyl]phenoxy}-1H-pyrazol-3-yl)phenyl]-1-methylethyl}-2,2,2-trifluoroethanesulfonamide]
- IC50 [1]: < 200 nM
- IC50 [2]: < 200 nM

Structure (SMILES): CCn1nc(-c2cccc(C(C)(C)NS(=O)(=O)CC(F)(F)F)c2)cc1Oc1ccc(CNCc2cccnc2)cc1 [Example 94, N-(1-{3-[1-ethyl-5-(4-{[(pyridin-3-ylmethyl)amino]methyl}phenoxy)-1H-pyrazol-3-yl]phenyl}-1-methylethyl)-2,2,2-trifluoroethanesulfonamide]
- IC50 [1]: < 200 nM
- IC50 [2]: < 200 nM

Structure (SMILES): CCn1nc(-c2cccc(C3(NS(=O)(=O)CC(F)(F)F)COC3)c2)cc1Oc1ccc(C(F)(F)F)cc1 [Example 95, N-[3-(3-{1-ethyl-5-[4-(trifluoromethyl)phenoxy]-1H-pyrazol-3-yl}phenyl)oxetan-3-yl]-2,2,2-trifluoroethanesulfonamide]
- IC50 [1]: < 200 nM
- IC50 [2]: < 200 nM

Structure (SMILES): CCn1nc(-c2cccc(C3(NS(=O)(=O)NC)COC3)c2)cc1Oc1ccc(C(F)(F)F)cc1 [Example 97, N-[3-(3-{1-ethyl-5-[4-(trifluoromethyl)phenoxy]-1H-pyrazol-3-yl}phenyl)oxetan-3-yl]-N′-methylsulfamide]
- IC50 [1]: < 200 nM
- IC50 [2]: < 200 nM

Structure (SMILES): CCn1nc(Oc2ccc(C(F)(F)F)cc2)cc1-c1cccc(C2(NS(=O)(=O)NCCC(F)(F)F)COC2)c1 [Example 102]
- IC50 [1]: < 200 nM
- IC50 [2]: < 200 nM

Structure (SMILES): CCn1nc(Oc2ccc(C(F)(F)F)cc2)cc1-c1cccc(C2(NS(=O)(=O)NCC3CCC3)COC2)c1 [Example 103]
- IC50 [1]: < 200 nM
- IC50 [2]: < 200 nM

Structure (SMILES): Cn1nc(-c2cccc(C3(NS(=O)(=O)CC(F)(F)F)CC3)c2)cc1Oc1ccc(C(F)(F)F)cc1 [Example 106, 2,2,2-trifluoro-N-[1-(3-{1-methyl-5-[4-(trifluoromethyl)phenoxy]-1H-pyrazol-3-yl}phenyl)cyclopropyl]ethanesulfonamide]
- IC50 [1]: < 200 nM
- IC50 [2]: < 200 nM

Structure (SMILES): CCn1nc(-c2cccc(C(C)(C)NS(=O)(=O)CC(F)(F)F)c2)cc1Oc1ccc(C#N)cc1 [Example 108, N-(1-{3-[5-(4-cyanophenoxy)-1-ethyl-1H-pyrazol-3-yl]phenyl}-1-methylethyl)-2,2,2-trifluoroethanesulfonamide]
- IC50 [1]: < 200 nM
- IC50 [2]: < 200 nM

Structure (SMILES): CCn1nc(-c2cccc(C3(NS(=O)(=O)CC(F)(F)F)CCC3)c2)cc1Oc1ccc(C(F)(F)F)cc1 [Example 109, N-[1-(3-{1-ethyl-5-[4-(trifluoromethyl)phenoxy]-1H-pyrazol-3-yl}phenyl)cyclobutyl]-2,2,2-trifluoroethanesulfonamide]
- IC50 [1]: < 200 nM
- IC50 [2]: < 200 nM

Structure (SMILES): CCn1nc(-c2cccc(C3(NS(=O)(=O)CC(F)(F)F)CC3)c2)c(Cl)c1Oc1ccc(C(F)(F)F)cc1 [Example 111, N-[1-(3-{4-chloro-1-ethyl-5-[4-(trifluoromethyl)phenoxy]-1H-pyrazol-3-yl}phenyl)cyclopropyl]-2,2,2-trifluoroethanesulfonamide]
- IC50 [1]: < 200 nM
- IC50 [2]: < 200 nM

Structure (SMILES): CCn1nc(-c2cccc(C(C)(C)NS(=O)(=O)CC(F)(F)F)c2)c(Cl)c1Oc1ccc(C(F)(F)F)cc1 [Example 112, N-[2-(3-{4-chloro-1-ethyl-5-[4-(trifluoromethyl)phenoxy]-1H-pyrazol-3-yl}phenyl)propan-2-yl]-2,2,2-trifluoroethanesulfonamide]
- IC50 [1]: < 200 nM
- IC50 [2]: < 200 nM
